According to PubChem BioAssay (NCI):
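Cells were grown in 96-well plates and exposed to each compound for 48 hours at five concentrations; endpoints were interpolated linearly between bracketing concentrations, or set to the highest concentration if not reached. Definition used: TGI = concentration required for complete inhibition of growth.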

Key:
Test in all cases: NCI anticancer screen, dose series, 48 h
[1] = test system: 786-0 renal
[2] = test system: A549 NSCLC
[3] = test system: ACHN renal
[4] = test system: BT-549 breast
[5] = test system: CAKI-1 renal
[6] = test system: CCRF-CEM leukemia
[7] = test system: COLO 205 colon
[8] = test system: DU-145 prostate
[9] = test system: EKVX NSCLC
[10] = test system: HCC-2998 colon
[11] = test system: HCT-116 colon
[12] = test system: HCT-15 colon
[13] = test system: HL-60(TB) leukemia
[14] = test system: HOP-62 NSCLC
[15] = test system: HOP-92 NSCLC
[16] = test system: HT29 colon
[17] = test system: IGROV1 ovarian
[18] = test system: K-562 leukemia
[19] = test system: M14 melanoma
[20] = test system: MALME-3M melanoma
[21] = test system: MCF7 breast
[22] = test system: MDA-N
[23] = test system: MOLT-4 leukemia
[24] = test system: NCI-H226 lung
[25] = test system: NCI-H23 lung
[26] = test system: NCI-H460 lung
[27] = test system: NCI-H522 lung
[28] = test system: NCI/ADR-RES ovarian
[29] = test system: OVCAR-3 ovarian
[30] = test system: OVCAR-4 ovarian
[31] = test system: OVCAR-5 ovarian
[32] = test system: OVCAR-8 ovarian
[33] = test system: PC-3 prostate
[34] = test system: RPMI-8226 leukemia
[35] = test system: RXF 393 renal
[36] = test system: SF-268 CNS
[37] = test system: SF-295 CNS
[38] = test system: SF-539 CNS
[39] = test system: SK-MEL-2 melanoma
[40] = test system: SK-MEL-28 melanoma
[41] = test system: SK-MEL-5 melanoma
[42] = test system: SK-OV-3 ovarian
[43] = test system: SN12C renal
[44] = test system: SNB-19 CNS
[45] = test system: SNB-75 CNS
[46] = test system: SR leukemia
[47] = test system: SW-620 colon
[48] = test system: TK-10 renal
[49] = test system: U251 CNS
[50] = test system: UACC-257 melanoma
[51] = test system: UACC-62 melanoma
[52] = test system: UO-31 renal
[53] = test system: A498 renal
[54] = test system: KM12 colon
[55] = test system: LOX IMVI melanoma
[56] = test system: MDA-MB-231 breast
[57] = test system: MDA-MB-435

With `CN(C)CCCNC(=O)c1c(-c2cccnc2)cnc2ccccc12` the TGI [1] was > 100 µM, the TGI [2] was > 100 µM and the TGI [3] was > 100 µM. The TGI [4] was > 100 µM, the TGI [5] was > 100 µM and the TGI [6] was > 100 µM. The TGI [7] was > 100 µM, the TGI [8] was > 100 µM and the TGI [9] was > 100 µM. The TGI [10] was > 100 µM, the TGI [11] was > 100 µM and the TGI [12] was > 100 µM. For the same compound, the TGI [13] was > 100 µM, the TGI [14] was > 100 µM and the TGI [15] was > 100 µM. The TGI [16] was > 100 µM, the TGI [17] was > 100 µM and the TGI [18] was > 100 µM. The TGI [19] was > 100 µM, the TGI [20] was > 100 µM and the TGI [21] was > 100 µM. The TGI [22] was > 100 µM, the TGI [23] was > 100 µM and the TGI [24] was > 100 µM. The TGI [25] was > 100 µM, the TGI [26] was > 100 µM and the TGI [27] was > 100 µM. The TGI [28] was > 100 µM, the TGI [29] was > 100 µM and the TGI [30] was > 100 µM. For the same compound, the TGI [31] was > 100 µM, the TGI [32] was > 100 µM and the TGI [33] was > 100 µM. For the same compound, the TGI [34] was > 100 µM, the TGI [35] was > 100 µM and the TGI [36] was > 100 µM. For the same compound, the TGI [37] was > 100 µM, the TGI [38] was > 100 µM and the TGI [39] was > 100 µM. For the same compound, the TGI [40] was > 100 µM, the TGI [41] was > 100 µM and the TGI [42] was > 100 µM. The TGI [43] was > 100 µM, the TGI [44] was > 100 µM and the TGI [45] was > 100 µM. The TGI [46] was > 100 µM, the TGI [47] was > 100 µM and the TGI [48] was > 100 µM. The TGI [49] was > 100 µM, the TGI [50] was > 100 µM and the TGI [51] was > 100 µM. The TGI [52] was > 100 µM.

In the case of `CC(C)CC(NC(=O)C(CSc1ccc([N+](=O)[O-])cc1)Cc1ccccc1)C(=O)Nc1ccccc1` (stereo not given), the TGI [1] is reported as > 100 µM, the TGI [53] is reported as > 100 µM and the TGI [2] is reported as > 100 µM. The TGI [3] was > 100 µM, the TGI [4] was 59.5 µM and the TGI [5] was > 100 µM. The TGI [6] was > 100 µM, the TGI [7] was > 100 µM and the TGI [8] was > 100 µM. For the same compound, the TGI [9] was > 100 µM, the TGI [10] was > 100 µM and the TGI [11] was > 100 µM. For the same compound, the TGI [12] was > 100 µM, the TGI [13] was > 100 µM and the TGI [15] was > 100 µM. For the same compound, the TGI [17] was > 100 µM, the TGI [18] was > 100 µM and the TGI [54] was > 100 µM. For the same compound, the TGI [55] was > 100 µM, the TGI [19] was > 100 µM and the TGI [20] was 80.5 µM. For the same compound, the TGI [21] was > 100 µM, the TGI [56] was > 100 µM and the TGI [57] was > 100 µM. The TGI [22] was > 100 µM, the TGI [23] was > 100 µM and the TGI [25] was > 100 µM. For the same compound, the TGI [26] was > 100 µM, the TGI [27] was > 100 µM and the TGI [28] was > 100 µM. For the same compound, the TGI [29] was > 100 µM, the TGI [30] was > 100 µM and the TGI [31] was > 100 µM. For the same compound, the TGI [32] was > 100 µM, the TGI [33] was > 100 µM and the TGI [34] was > 100 µM. The TGI [35] was > 100 µM, the TGI [37] was > 100 µM and the TGI [38] was > 100 µM. The TGI [39] was > 100 µM, the TGI [40] was > 100 µM and the TGI [41] was > 100 µM. For the same compound, the TGI [42] was > 100 µM, the TGI [43] was > 100 µM and the TGI [44] was > 100 µM. For the same compound, the TGI [45] was 65.1 µM, the TGI [46] was > 100 µM and the TGI [47] was > 100 µM. For the same compound, the TGI [48] was > 100 µM, the TGI [49] was > 100 µM and the TGI [50] was > 100 µM. The TGI [51] was > 100 µM and the TGI [52] was > 100 µM.
